According to patent US6326023A, “Synergistic anti-malarial formulation” (priority 2000, dated 2001):

Columns and labels:
[1] = system: P. yoelii nigeriensis (MDR II); assay: Resistance pattern of P. yoelii nigeriensis (MDR II) strain to antimalarials/antibiotics (oral) in Swiss mice; format: in vivo
Protocol: Swiss mice weighing 20±1 to 25±g of either sex and random laboratory bred at Central Drug Research Institute, Lucknow were used. Mice were routinely infected with 1×10^5 parasitized RBC intraperitoneally using sterile citrate saline as diluent for infected blood. […] From day 4 onwards, tail blood smears were examined after Giemsa staining and percent parasitaemia and mortality was recorded. The parasite (MDR strain) was lethal for Swiss mice and mice died in 6-8 days after developing parasitaemia above 40% to 100% infection of RBC, Mortality was 100% in mice.

[2] = human, in vivo; cited from earlier work
P. falciparum = details: rectal suppository, in 48-56 h; cited from earlier work
[3] = im; cited from earlier work

## CN(C)[C@@H]1C(O)=C(C(N)=O)C(=O)[C@@]2(O)C(O)=C3C(=O)c4c(O)ccc(Cl)c4[C@@H](O)[C@H]3C[C@@H]12 [Demeclocycline]
[1]; 500 mg/kg × 4 days
  Parasite response: Resistant

## CN(C)C1C(=O)C(C(N)=O)=C(O)C2(O)C(=O)C3=C(O)c4c(O)cccc4C(C)(O)C3CC12 (stereo not shown) [Tetracycline]
[1]; 500 mg/kg × 4 days
  Parasite response: Resistant

## CCN(CC)Cc1cc(Nc2ccnc3cc(Cl)ccc23)ccc1O [Amodiaquine]
[1]; 128 mg/kg × 4 days
  Parasite response: Resistant

## C[C@H]1c2cccc(O)c2C(=O)C2=C(O)[C@]3(O)C(=O)C(C(N)=O)=C(O)[C@@H](N(C)C)[C@@H]3[C@@H](O)[C@@H]21 [Doxycycline]
[1]; 25 mg/kg × 4 days
  Parasite response: Resistant

## CCn1cc(C(=O)O)c(=O)c2cc(F)c(N3CCNCC3)cc21 [Norfloxacine]
[1]; 50 mg/kg × 4 days
  Parasite response: Resistant

## O=C(O)c1cn(C2CC2)c2cc(N3CCNCC3)c(F)cc2c1=O [Ciprofloxacine]
[1]; 50 mg/kg × 4 days
  Parasite response: Resistant

## CCCCN(CCCC)CCC(O)c1cc2c(Cl)cc(Cl)cc2c2cc(C(F)(F)F)ccc12 (stereo not shown) [Halofantrine]
[1]; 32 mg/kg × 4 days
  Parasite response: Resistant
[2]
  Cardiotoxicity: increased risk of cardiotoxicity

## CN(C)C1C(=O)C(C(N)=O)=C(O)C2(O)C(=O)C3=C(O)c4c(O)cccc4C(C)(O)C3C(O)C12 (stereo not shown) [Oxytetracycline]
[1]; 500 mg/kg × 4 days
  Parasite response: Resistant

## CCc1nc(N)nc(N)c1-c1ccc(Cl)cc1 [Pyrimethamine]
[1]; 16 mg/kg × 4 days
  Parasite response: Resistant

## CCN(CC)CCCC(C)Nc1c2ccc(Cl)cc2nc2ccc(OC)cc12 (stereo not shown) [Mepacrine]
[1]; 128 mg/kg × 4 days
  Parasite response: Resistant

## C=C[C@H]1C[N@@]2CC[C@H]1C[C@@H]2[C@@H](O)c1ccnc2ccc(OC)cc12 [Quinidine]
[1]; 400 mg/kg × 4 days
  Parasite response: Resistant

## C=C[C@H]1C[N@@]2CC[C@H]1C[C@H]2[C@H](O)c1ccnc2ccc(OC)cc12 [Quinine]
[1]; 400 mg/kg × 4 days
  Parasite response: Resistant

## C[C@@H]1CC[C@H]2[C@@H](C)C(=O)O[C@@H]3O[C@@]4(C)CC[C@@H]1[C@]32OO4 [artemisinin]
P. falciparum
  Dose needed for complete parasite clearance: 2800 mg

## COc1cc(C)c2c(Oc3cccc(C(F)(F)F)c3)c(OC)cc(NC(C)CCCN)c2n1 (stereo not shown) [WR238605]
[1]; 10 mg/kg × 7 days
  Parasite response: Resistant

## CCN(CC)CCCC(C)Nc1ccnc2cc(Cl)ccc12 (stereo not shown) [Chloroquine]
[1]; 128 mg/kg × 4 days
  Parasite response: Resistant

## OC(c1cc(C(F)(F)F)nc2c(C(F)(F)F)cccc12)C1CCCCN1 (stereo not shown) [Mefloquine]
[1]; 128 mg/kg × 4 days
  Parasite response: Resistant

## CC[C@H]1OC(=O)[C@H](C)[C@@H](O[C@H]2C[C@@](C)(OC)[C@@H](O)[C@H](C)O2)[C@H](C)[C@@H](O[C@@H]2O[C@H](C)C[C@H](N(C)C)[C@H]2O)[C@](C)(O)C[C@@H](C)C(=O)[C@H](C)[C@@H](O)[C@]1(C)O [Erythromycin]
[1]; 250 mg/kg × 4 days
  Parasite response: Resistant

## C[C@H]1[C@H](OC(=O)CCC(=O)O)O[C@@H]2O[C@@]3(C)CC[C@H]4[C@H](C)CC[C@@H]1[C@@]24OO3 [artesunate]
[3]
  LD50: 475 mg/kg
